Source: patent US12258424B2, “Polypeptides and compositions comprising the same” (priority 2020, dated 2025)
Values joined by “and” are separate entries in the source; they are usually repeats but may differ in a detail not shown here. Equal values may be shown once. Residues, ends and D or L forms follow the SMILES beside them.

Experiments:
[1] = target: T1, recombinant human PD-L1 ECD protein (Homo sapiens, UniProt Q9NZQ7); assay: SPR binding kinetics and affinity to immobilized human PD-L1; conditions: read-out: Ka
T1 construct: against the recombinant human PD-L1 ECD protein were evaluated using SPR; purchased G&P Biosciences FCL0784B
Method: In such aspects, the equilibrium dissociate constant KD value against recombinant human PD-L1 can be determined according to an KD to PD-L1 SPR Assay. The KD to PD-L1 SPR Assay can include the use of Surface Plasmon Resonance (SPR), such as the B14500, Biosensing Instrument, and can include the following procedures. The PD-L1 protein can be diluted to 10 μg/mL with sodium acetate buffer (pH 5.0, GE Healthcare, PA) and covalently coated onto a CM5 sensor chip (CM Dextran Sensor Chip, Biosensing Instrument) using the standard Amine Coupling Kit (GE Healthcare, PA). Approximately 6500 RU of PD-L1 protein are immobilized onto the chip. A second channel is used as a reference. HBS-EP+ buffer (GE Healthcare) can be employed at a flow rate of 60 μL/min. A series of concentrations of each peptide (15, 30, 60, 125, 250, 500, 1000, 5000 and 10,000 nM) is prepared in HBS-EP+ running buffer to obtain the equilibrium dissociation constant (KD) values of the peptides. The CM5 sensor chip can be regenerated with 10 mM NaOH for 20 s. The results can be analyzed using the software of Bi data analysis software.
Evaluation of Binding Kinetics and Affinity By Surface Plasmon Resonance (SPR). Binding affinities of the PD-L1 specific peptides for human PD-L1 protein were determined by SPR (B14500, Biosensing Instrument). PD-L1 protein was diluted to 10 μg/mL with sodium acetate buffer (pH 5.0, GE Healthcare, PA) and covalently coated onto a CM5 sensor chip (CM Dextran Sensor Chip, Biosensing Instrument) using the standard Amine Coupling Kit (GE Healthcare, PA). Approximately 6500 RU of PD-L1 protein were immobilized onto the chip. A second channel was used as a reference. HBS-EP+ buffer (GE Healthcare) was employed at a flow rate of 60 μL/min. A series of concentrations of each peptide (15, 30, 60, 125, 250, 500, 1000, 5000 and 10,000 nM) were prepared in HBS-EP+ running buffer to obtain the equilibrium dissociation constant (KD) values of the peptides. The CM5 sensor chip was regenerated with 10 mM NaOH for 20 seconds. The results were analyzed using the software of Bi data analysis software. Binding affinities of the anti-PD-L1 peptides to BSA was also assessed following the procedure for human PD-L1.

[2] = tested on: IFNγ, PD-L1 and IL-6 in CT26 tumors; assay: ELISA of IFNγ, PD-L1 and IL-6 in harvested CT26 tumors; type: in vivo, mouse
Description: (§1) Animal Study. The animal protocol was approved by the University of Missouri-Kansas City, Institutional Animal Care and Use Committee (IACUC). Five-week old male and female Balb/c mice were purchased from Charles Rivers Laboratories (Wilmington, Mass.) and housed in a temperature and humidity controlled room on a 12-hour light-dark cycle. Approximately 5×10^5 CT26 cells were subcutaneously injected into the right flank. The mice were randomly divided into five different groups (10 mice/group, 50% female, 50% male). The mice were intraperitoneally injected with 2 mg/kg peptide daily when the tumor size reached 50-100 mm^3. The anti-mouse PD-L1 antibody (10F.9G2, BioXcell) was administrated as a positive control at a dose of 10 mg/kg every two days. The tumor size was assessed with a caliper and calculated with the formula 0.5×length×width^2. ELISA kits of PD-L1 (Cat #DY1019-05), IFNγ (Cat #DY485-05), and IL-6 (Cat #DY406-05) were used to measure the expressions of PD-L1, IFNγ, and IL-6, respectively, in tumors as per the company's instructions (R & D Systems, Minneapolis, MN).

[3] = tested on: CT26 tumor-bearing Balb/C mice; assay: Survival of CT26 tumor-bearing Balb/C mice; type: in vivo, mouse
Description: as §1
In this Example, mice were intraperitoneally injected with the CLP002 (SEQ ID NO:2) and CLP003 (SEQ ID NO:3) peptides daily or the anti-mouse PD-L1 antibody every other day from day 4 to day 17 (see survival curves in FIG. 7a). Specifically, CT26 tumor-bearing Balb/C mice (n=10, 5 male and 5 female) were intraperitoneally injected with the anti-PD-L1 peptides (2 mg/Kg) daily and the anti-mouse PD-L1 antibody (10 mg/Kg) every other day from day 4 to day 17. GraphPad Prism 7 software (San Diego, Calif.) was used for statistical analysis. Comparison of two survival curves were conducted using the Gehan-Breslow-Wilcoxon test. […] By contrast, only 20% of the mice in the CLP002 (SEQ ID NO:2) group were dead by day 17.

mPD-L1 = mPD-L1 (Mus musculus, UniProt Q9EP73); assay: Blockade of the mouse PD-1/PD-L1 interaction, mouse PD-L1 protein; type: binding; set-up: purchased G&P Biosciences FCL3502B (PD-L1)
Method: Ninety-six-well plates were coated with 100 ng of PD-L1 protein (G&P Biosciences, human PD-L1 ECD, cat #FCL0784B. mouse PD-L1, cat #FCL3502B) and later blocked with 2% BSA for 2 hours at room temperature. Various concentrations of peptides were loaded into the wells and incubated for 1 hour at room temperature. […] Streptavidin-HRP (R & D systems) and chromogenic substrate were added into the wells. OD450 was then recorded and referenced to OD540.

Chain of mPD-L1 (Q9EP73 19-239 limits assumed): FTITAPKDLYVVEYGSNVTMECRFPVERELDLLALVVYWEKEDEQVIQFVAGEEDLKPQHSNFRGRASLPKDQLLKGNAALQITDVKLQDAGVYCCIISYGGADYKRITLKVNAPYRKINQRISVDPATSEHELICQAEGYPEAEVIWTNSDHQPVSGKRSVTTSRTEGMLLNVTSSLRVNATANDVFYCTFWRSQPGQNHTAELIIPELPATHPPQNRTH
T1 sequence (Q9NZQ7 19-238 limits assumed): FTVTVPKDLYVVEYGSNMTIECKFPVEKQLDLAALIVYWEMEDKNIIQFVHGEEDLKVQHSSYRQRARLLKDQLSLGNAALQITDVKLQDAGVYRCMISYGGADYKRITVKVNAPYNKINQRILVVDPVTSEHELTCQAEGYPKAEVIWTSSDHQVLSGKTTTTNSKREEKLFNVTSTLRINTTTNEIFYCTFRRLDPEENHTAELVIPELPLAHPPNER

CC(C)C[C@H](NC(=O)[C@H](CC(N)=O)NC(=O)[C@H](Cc1c[nH]c2ccccc12)NC(=O)[C@@H](NC(=O)[C@H](Cc1ccc(O)cc1)NC(=O)[C@H](Cc1ccc(O)cc1)NC(=O)[C@H](CO)NC(=O)[C@H](CCCNC(=N)N)NC(=O)[C@H](Cc1c[nH]cn1)NC(=O)[C@@H](N)Cc1c[nH]c2ccccc12)[C@@H](C)O)C(=O)N[C@@H](CC(N)=O)C(=O)N[C@H](C(=O)O)[C@@H](C)O [CLP002] (H-WHRSYYTWNLNT-OH; N-terminus and C-terminus assumed)
kon [1]: 4520 M⁻¹ s⁻¹
IL-6 expression in tumor tissues [2]: decreased expression of IL-6
Tumor growth in the survival study ([3]; Example 7, individual growth curves): inhibited tumor growth
Mice showing a response to treatment (in words) ([3]; n=10): Eight mice showed a response
Mice dead by day 17 ([3]; n=10, saline group 90%): 20%
Survival of tumor-bearing mice ([3]; treatment from day 4 to day 17): improved the survival
Blocking efficiency against mouse PD-1/PD-L1 interaction (mPD-L1; at 10 μM, FIG. 2f): 71%
Blocking Efficiency (%) (mPD-L1; mouse PD-L1 protein): 71% and 68%
IC50 (mPD-L1; mouse PD-L1 protein): 1910 nM
